Experimental data from US20210121438A1, “METHODS FOR TREATING OR PREVENTING CONFORMATION DISEASES AND METHODS FOR DRUG SCREENING” (GARAGE BRAIN SCIENCE CO., LTD, priority 2018, published 2021).

How the values were obtained:
PFN1 and SMNA7 = target: T1, PFN1 and SMNA7 (Homo sapiens, UniProt Q16637); assay: Co-immunoprecipitation of PFN1 and SMNA7; assay type: cell-based; details: in the presence of baicalein
T1 construct: expressed in transfected cells
Source text: (§1) We investigate whether baicalein can act as a pharmacological chaperone to refold misfolded SMNA7 into a functional prion-like domain, as shown in FIG. 8 (FIG. 10a). […] PFN1 is a known SMN interactor in the cytosol. We further examined whether baicalein attenuated the degradation of the SMNA7 protein. […] We found baicalein increased the length of axons from NSC34 cells expressing SMNA7 by approximately 2-fold (FIG. 10g).

[1] = test system: NSC34 cells expressing SMNA7; assay: Axon/neurite length of NSC34 motor neurons expressing SMNA7; assay type: cell-based; details: NSC34 cells expressing SMNA7, baicalein 50 μM
Source text: as §1
We increased the amount of functional prion-like domains by overexpressing the TDP-43 prion-like domain (TDP-43-PLD) in NSC34 motor neuron cells expressing the SMNA7 proteins to confirm that the reduced level of the functional prion-like conformer caused axon degeneration in SMNΔ7-expressing neurons. The TDP-43-PLD is expected to adopt a common, structurally similar β sheet to compensate for the prion-like function of SMN through hetero-polymerization. […] Thus, the level of the prion-like conformer is critical for motor neuron survival, and other functionally unrelated prion-like proteins can compensate for the function of the defective protein.

[2] = test system: TDP-43-mediated CFTR exon 9 skipping; assay: Alternative splicing assay (in vivo splicing, CFTR minigene); assay type: cell-based
Method: Alternative Splicing Assay: TDP-43-mediated CFTR exon 9 skipping assays were performed as previously described. Briefly, cells were cotransfected with TDP-43 plasmid, hCF-(TG)13(T)5 minigenes and the indicated plasmids, including VCP/p97 wt, VCP/p97 QQ, HSPB1, lamin A or progeria, or HSPB1 siRNA. Total RNA of transfectanted cells was isolated by TRIzol reagent (Invitrogen), and RT-PCR was carried out by Superscript III (Invitrogen) using specific primers to amplify exons 8-10 of CFTR according to the manufacturer's protocol. The relative amounts of cDNA were validated on 1.3% agarose gels. […]

[3] = test system: SMNA7 aggregates in 293T cells; assay: SMNA7 aggregate formation in 293T cells; assay type: cell-based
Source text: as §1

SMA mice (Smn−/−SMN2+/−) = assay: Motor function tests in SMA mice (turnover, tube, negative geotaxis); assay type: in vivo
Source text: Mice: A mouse model of SMA was produced by deleting exon 7 of the Smn gene and knock-in of the human SMN2 gene (Smn−/−SMN2+/−). We were able to generate a variant that presents a more severe disease symptomatology through back-crossing to obtain a more homogenous genetic background. This model of severe SMA harbors two copies of the SMN2 transgene (Smn−/−SMN2+/−). The mouse model of SMA was generated through crossing the heterozygous knockout mice (Smn+/−SMN2−/−) with the homozygous knockout mice carrying two copies of the SMN2 transgene (Smn−/−SMN2+/+). SMA mice were subjected to daily intraperitoneal injections of baicalein (40 mg/kg/d in alcohol) or alcohol alone (control) from birth and then subjected to motor function tests and survival analysis. Three behavioral tests, the turnover test, tube test and negative geotaxis test, were conducted to evaluate the motor function of mice with SMA (Smn−/−SMN2+/−) and heterozygous littermates (Smn+/−SMN2+/−), as previously described. In the turnover test, the time required for a mouse to right itself and place all four paws on the ground from a prone position was recorded (the cutoff time was 60 s). The tube test was used to determine hind limb strength according to the posture of the hind limbs and the tail; scores ranged from 0 (the worst) to 4 (the best). In the negative geotaxis test, mice were placed on a 45° incline with their head pointing downward. The responses (turning and climbing) were scored from 0 (the worst) to 4 (the best).
A mouse model of SMA received daily intraperitoneal injections of baicalein ([…]) from birth, and we then assessed the animals using motor function tests and survival analyses to determine whether the in vitro findings were recapitulated in a mouse model in vivo (FIG. 10i). However, after baicalein treatment, the functional performance of SMA mice, including righting time, tube score, and tilting score, was improved at the 6th postnatal day (p<0.05), and the results were similar to heterozygous littermates treated with or without baicalein. […] Our studies provide a method for restoring the functional SMN protein by modulating the folding of the SMNA7 C-terminus and SMA-associated mutants to ensure that the protein performs the cellular functions of full-length SMN.

SMNA7 cells = assay: Morphology (neurite-like structure) of SMNA7 cells; assay type: cell-based; details: baicalein
Source text: as §1

SMNA7 protein = target: T2, SMNA7 protein (Homo sapiens, UniProt Q16637); assay: SMNA7 protein degradation (Western blotting); assay type: cell-based; details: baicalein
T2 construct: expressed in transfected cells
Source text: as §1

[4] = SMA mice, daily intraperitoneal baicalein 13.6 mg/kg/d from birth, 6th postnatal day, p<0.05

T1 sequence (Q16637 1-282 isoform Q16637-3): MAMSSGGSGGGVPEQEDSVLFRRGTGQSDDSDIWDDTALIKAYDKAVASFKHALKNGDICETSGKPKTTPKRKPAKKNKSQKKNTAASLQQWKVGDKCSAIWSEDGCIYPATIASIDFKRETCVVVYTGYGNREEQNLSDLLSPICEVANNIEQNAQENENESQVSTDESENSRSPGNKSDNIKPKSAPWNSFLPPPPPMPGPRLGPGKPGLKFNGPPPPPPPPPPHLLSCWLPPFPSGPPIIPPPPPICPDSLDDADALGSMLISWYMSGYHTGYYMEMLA
T2 sequence (Q16637 1-282 isoform Q16637-3): as above

## O=c1cc(-c2ccccc2)oc2cc(O)c(O)c(O)c12 [baicalein]
PFN1 and SMNA7
  interactions between PFN1 and SMNA7: significantly increased
[1]
  increase of length of axons: approximately 2 fold
[2]; VCP/p97-QQ-expressing cells
  CFTR exon 9 skipping: increased CFTR exon 9 skipping
[2]; cells co-transfected with TDP-43 and VCP/p97 R155H mutant
  failure of TDP-43 to promote CFTR exon 9 skipping: corrected
[2]; cells expressing VCP/p97-QQ
  dysfunction caused by FTLD/ALS-linked sporadic mutation R361S of TDP-43: rescued dysfunction
  dysfunction of proline substitution mutant GFP-TDP-43-Q303P: rescued dysfunction
[2]; cells expressing progeria
  TDP-43 dysfunction (CFTR exon 9 skipping): rescued TDP-43 dysfunction caused by progeria in a dose-dependent manner
[2]; cells expressing progeria, baicalein 10 μm
  restoring ratio of exon skipping: 1.31
[2]; cells expressing progeria, baicalein 50 μm
  restoring ratio of exon skipping: 1.91
[2]; cells treated with only baicalein, TDP-43 overexpressed
  TDP-43-mediated CFTR exon 9 skipping: enhanced ability to promote the TDP-43-mediated CFTR exon 9 skipping in a dose-dependent manner
[2]; without co-overexpressing TDP-43 proteins
  exon skipping of CFTR: no effect
[3]
  formation of SMNA7 aggregates: decreased the formation of SMNA7 aggregates in 293T cells in a dose-dependent manner
SMA mice (Smn−/−SMN2+/−); 8th postnatal day, p=0.009
  functional performance in the tube test versus control SMA mice: better than that of the control SMA mice
SMA mice (Smn−/−SMN2+/−); 8th postnatal day, p=0.58
  functional performance better than control SMA mice in the negative geotaxis test: not
SMA mice (Smn−/−SMN2+/−); [4]
  righting time (turnover test): improved
  tilting score (negative geotaxis test): improved
  tube score: improved
SMNA7 cells
  neurite-like structure of SMNA7 cells: increased the neurite-like structure of SMNA7 cells
SMNA7 protein
  SMNA7 degradation: significantly reduced SMNA7 degradation
